According to patent US9982005B2, “Macrolides and methods of their preparation and use” (President and Fellows of Harvard College, priority 2013, dated 2018):
In brackets after ≈: the same amount, converted by molar mass. Read-outs that look alike come from different tables or passages of the source.

Tests used:
Assay type in all cases: cell-based
[1] = tested on: SA557 S. aureus ermA unknown msrA positive; assay: broth dilution MIC, S. aureus SA557; conditions: Staphylococcus aureus
From the text: (§1) We have collected MIC data for a total of 50 novel macrolides that this platform has produced against over 21 unique strains of B. subtilis, E. coli, S. aureus, S. pneumoniae, and H. influenzae, including several multidrug-resistant strains, with a special focus on macrolide resistant mechanisms (vide supra). Azithromycin was included as a control macrolide. CLSI standard procedures for broth dilution MIC determination were used. […] These genotypes can be constitutive or inducible. The finding that C4-epi (unnatural) isomers of the “azaketolide” macrolide class have enhanced activities relative to C4 natural isomers is very exciting.

[2] = tested on: SA418 S. aureus ermA negative msrA positive; assay: broth dilution MIC, S. aureus SA418; conditions: Staphylococcus aureus
From the text: as §1

[3] = tested on: Spn 106 S. pneumonia ATCC49619; assay: broth dilution MIC, S. pneumoniae Spn 106; conditions: Streptococcus pneumoniae
From the text: as §1

[4] = tested on: BS1725 B. subtilis ermC; assay: broth dilution MIC, B. subtilis BS1725; conditions: Bacillus subtilis
Method in brief: (§2)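 Read-out is the minimum inhibitory concentration, obtained by broth dilution per CLSI standards. The strain panel included multidrug-resistant isolates carrying macrolide-resistance genotypes, which may be constitutive or inducible.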

[5] = tested on: SA101 S. aureus ATCC29213; assay: broth dilution MIC, S. aureus SA101; conditions: Staphylococcus aureus
Method in brief: as §2

[6] = tested on: SA1708 S. aureus ermA positive msrA negative; assay: broth dilution MIC, S. aureus SA1708; conditions: Staphylococcus aureus
From the text: as §1

[7] = tested on: Spn1427 S. pneumoniae ermB positive mefA negative; assay: broth dilution MIC, S. pneumoniae Spn1427; conditions: Streptococcus pneumoniae
From the text: as §1

[8] = tested on: EC107 E. coli ATCC25922; assay: broth dilution MIC, E. coli EC107; conditions: Escherichia coli, read-out: MIC
Method in brief: as §2

[9] = tested on: Spn1537 S. pneumoniae ermB positive mefA positive; assay: broth dilution MIC, S. pneumoniae Spn1537; conditions: Streptococcus pneumoniae
From the text: as §1

[10] = tested on: EC878 E. coli tolC; assay: broth dilution MIC, E. coli EC878; conditions: Escherichia coli
Method in brief: as §2

[11] = tested on: Spn160 S. pneumoniae ermB unknown mefA positive; assay: broth dilution MIC, S. pneumoniae Spn160; conditions: Streptococcus pneumoniae; Spn160 S. pneumoniae ermB unknown mefA positive; read-out: MIC
From the text: as §1

[12] = tested on: BS1723 B. subtilis BS168 WT wild type; assay: broth dilution MIC, B. subtilis BS1723; conditions: Bacillus subtilis, BS1723 B. subtilis BS168 WT wild type; read-out: MIC
Method in brief: as §2

[13] = tested on: EC882 E. coli imp; assay: broth dilution MIC, E. coli EC882; conditions: Escherichia coli
Method in brief: as §2

[14] = tested on: HI175 H. influenzae ATCC49247; assay: broth dilution MIC, H. influenzae HI175; conditions: Haemophilus influenzae
From the text: as §1

[15] = tested on: Spn1533 S. pneumoniae ermB positive mefA positive; assay: broth dilution MIC, S. pneumoniae Spn1533; conditions: Streptococcus pneumoniae
From the text: as §1

[16] = tested on: SA1707 S. aureus ermA negative msrA positive; assay: broth dilution MIC, S. aureus SA1707; conditions: Staphylococcus aureus
From the text: as §1

[17] = tested on: Spn1509 S. pneumoniae ermB positive mefA negative; assay: broth dilution MIC, S. pneumoniae Spn1509; conditions: Streptococcus pneumoniae
From the text: as §1

[18] = tested on: SA183 S. aureus ermA positive msrA unknown; assay: broth dilution MIC, S. aureus SA183; conditions: Staphylococcus aureus
From the text: as §1

[19] = tested on: SA506 S. aureus ermA positive msrA unknown; assay: broth dilution MIC, S. aureus SA506; conditions: Staphylococcus aureus
From the text: as §1

[20] = tested on: E. coli strains; assay: MIC against E. coli strains (Table M7); conditions: Escherichia coli, ATCC25922, E. coli ATCC 25922
Method in brief: as §2

[21] = tested on: A. baumannii strains; assay: MIC against A. baumannii strains (Table M8); conditions: Acinetobacter baumannii, BAA747, A. baumannii BAA747-1
[22] = tested on: E. faecalis strains; assay: MIC against E. faecalis strains (Table M8); conditions: Enterococcus faecalis, E. faecalis 29212
[23] = tested on: HI281 H. influenzae; assay: broth dilution MIC, H. influenzae HI281; conditions: Haemophilus influenzae
From the text: as §1

[24] = tested on: S. pneumoniae strains; assay: MIC against S. pneumoniae strains (Tables M7, M8); conditions: Streptococcus pneumoniae
From the text: CLSI standard procedures for broth dilution MIC determination were used. […] These genotypes can be constitutive or inducible.

[25] = tested on: S. aureus strains; assay: MIC against S. aureus strains (Table M7); conditions: Staphylococcus aureus
Method in brief: as §2

[26] = tested on: H. influenzae strains; assay: MIC against H. influenzae strains (Table M8); conditions: Haemophilus influenzae
Method in brief: as §2

[27] = tested on: K. pneumoniae strains; assay: MIC against K. pneumoniae strains (Table M8); conditions: Klebsiella pneumoniae, K. pneumoniae 10031
[28] = tested on: E. coli (MC4100); assay: MIC, E. coli MC4100; conditions: Escherichia coli, round 2, read-out: MIC
From the text: as §1

[29] = tested on: S. aureus (Newman, clinical isolate); assay: MIC, S. aureus Newman; conditions: Staphylococcus aureus, S. aureus (Neuman, clinical isolate), round 2
From the text: as §1

[30] = SA557 S. aureus ermA unknown msrA positive, read-out: MIC
[31] = Spn 106 S. pneumonia ATCC49619, read-out: MIC
[32] = ATCC29213, SA101 S. aureus ATCC29213, read-out: MIC
[33] = Spn1509 S. pneumoniae ermB positive mefA negative, read-out: MIC
[34] = S. pneumoniae 160, read-out: MIC S. pneumonae (160)
[35] = S. pneumoniae 1509, read-out: MIC S. pneumoniae (1509)
[36] = S. pneumoniae 1533, read-out: MIC S. pneumoniae (1533)
[37] = S. pneumoniae 1537, read-out: MIC S. pneumoniae (1537)
[38] = S. pneumoniae 49619, read-out: MIC S. pneumoniae (49619)
[39] = ATCC29213, S. aureus ATCC 29213, read-out: MIC S. aureus (ATCC 29213)
[40] = S. aureus 506, read-out: MIC S. aureus (506)
[41] = S. aureus 1708, read-out: MIC S. aureus (1708)
[42] = USA300, S. aureus USA300, read-out: MIC S. aureus (USA300)
[43] = H. influenzae 49247, read-out: MIC H. influenzae (49247)
[44] = H. influenzae 49766, read-out: MIC H. influenzae (49766)

CC[C@H]1OC(=O)C(C)(F)C(=O)[C@@H](C)[C@@H](O[C@@H]2OC(C)CC(N(C)C)C2O)[C@](C)(OC)C[C@@H](C)CN[C@H](C)[C@H]2N(CCCCn3cc(-c4cccc(N)n4)nn3)C(=O)O[C@]12C (some centres unmarked) [FSM-20718]
MIC [1, 30]: 8 µg/mL (≈ 9.44 µM)
MIC [2]: 16 µg/mL (≈ 18.9 µM)
MIC [3, 31]: 0.0156 to 0.25 µg/mL (≈ 0.0184 to 0.295 µM)
MIC ([4]; BS1725 B. subtilis ermC (+ery)): > 32 µg/mL
MIC [5, 32]: 8 µg/mL (≈ 9.44 µM)
MIC [6]: 16 µg/mL (≈ 18.9 µM)
MIC [7]: 4 to 32 µg/mL (≈ 4.72 to 37.8 µM)
MIC [8]: > 32 µg/mL
MIC [9]: > 32 µg/mL
MIC [10]: 1 µg/mL (≈ 1.18 µM)
MIC [11]: 0.25 to 1 µg/mL (≈ 0.295 to 1.18 µM)
MIC [12]: 8 µg/mL (≈ 9.44 µM)
MIC [13]: 0.125 µg/mL (≈ 0.148 µM)
MIC [14]: 2 to 16 µg/mL (≈ 2.36 to 18.9 µM)
MIC [15]: > 32 µg/mL
MIC [16]: 32 µg/mL (≈ 37.8 µM)
MIC [17, 33]: 0.5 to 4 µg/mL (≈ 0.59 to 4.72 µM)
MIC [18]: > 32 µg/mL
MIC [19]: > 32 µg/mL

CC[C@H]1OC(=O)[C@H](C)C(=O)[C@H](C)[C@@H](O[C@@H]2OC(C)CC(N(C)C)C2O)[C@](C)(OC)C[C@@H](C)CN[C@H](C)[C@H]2N(CCCCn3cc(-c4cccc(N)n4)nn3)C(=O)O[C@]12C (some centres unmarked) [FSM-20715]
MIC [1, 30]: 1 µg/mL (≈ 1.21 µM)
MIC [20]: 8 µg/mL (≈ 9.65 µM)
MIC [21]: 8 µg/mL (≈ 9.65 µM)
MIC [22]: 0.25 µg/mL (≈ 0.302 µM)
MIC [2]: 2 µg/mL (≈ 2.41 µM)
MIC ([3]; ATCC49619): 0.0156 to 0.0312 µg/mL (≈ 0.0188 to 0.0376 µM)
MIC ([4]; BS1725 B. subtilis ermC (+ery)): 16 µg/mL (≈ 19.3 µM)
MIC [23]: 4 µg/mL (≈ 4.82 µM)
MIC [5, 32]: 1 to 2 µg/mL (≈ 1.21 to 2.41 µM)
MIC [6]: 2 µg/mL (≈ 2.41 µM)
MIC [8]: 4 µg/mL (≈ 4.82 µM)
MIC [24, 34]: 0.25 µg/mL (≈ 0.302 µM)
MIC [24, 35]: 2 µg/mL (≈ 2.41 µM)
MIC [24, 36]: > 32 µg/mL
MIC [24, 37]: > 32 µg/mL
MIC [24, 38]: 0.125 µg/mL (≈ 0.151 µM)
MIC [9]: > 32 µg/mL
MIC [10]: 0.5 µg/mL (≈ 0.603 µM)
MIC [11]: 0.125 to 0.25 µg/mL (≈ 0.151 to 0.302 µM)
MIC [25, 39]: 1 µg/mL (≈ 1.21 µM)
MIC [25, 40]: > 32 µg/mL
MIC [25, 41]: 2 µg/mL (≈ 2.41 µM)
MIC [25, 42]: 2 µg/mL (≈ 2.41 µM)
MIC [26, 43]: 0.5 µg/mL (≈ 0.603 µM)
MIC [26, 44]: 2 µg/mL (≈ 2.41 µM)
MIC [27]: 2 µg/mL (≈ 2.41 µM)
MIC [12]: 1 µg/mL (≈ 1.21 µM)
MIC [13]: 0.0312 µg/mL (≈ 0.0376 µM)
MIC [14]: 2 µg/mL (≈ 2.41 µM)
MIC [15]: > 32 µg/mL
MIC [16]: 2 µg/mL (≈ 2.41 µM)
MIC [17, 33]: 0.5 to 2 µg/mL (≈ 0.603 to 2.41 µM)
MIC [18]: > 32 µg/mL
MIC [19]: > 32 µg/mL

CCC[C@@H]1C[C@@H](C(=O)N[C@@H]([C@H]2O[C@H](SC)[C@H](O)[C@@H](O)[C@H]2O)[C@H](C)Cl)N(C)C1 [Clindamycin, clindamycin, reference compound]
MIC [1]: 0.125 µg/mL (≈ 0.294 µM)
MIC [2]: 0.0625 to 0.125 µg/mL (≈ 0.147 to 0.294 µM)
MIC [3, 31]: 0.0312 µg/mL (≈ 0.0734 µM)
MIC ([4]; BS1725 B. subtilis ermC (+ery)): 4 µg/mL (≈ 9.41 µM)
MIC ([4]; BS1725 B. subtilis ermC (−ery)): 2 µg/mL (≈ 4.71 µM)
MIC ([5]; ATCC29213): 0.125 µg/mL (≈ 0.294 µM)
MIC [6]: 0.25 µg/mL (≈ 0.588 µM)
MIC [7]: > 32 µg/mL
MIC [8]: > 32 µg/mL
MIC [9]: > 32 µg/mL
MIC [10]: 2 µg/mL (≈ 4.71 µM)
MIC [11]: 0.0156 to 0.0312 µg/mL (≈ 0.0367 to 0.0734 µM)
MIC [12]: 1 µg/mL (≈ 2.35 µM)
MIC [13]: 2 µg/mL (≈ 4.71 µM)
MIC [15]: > 32 µg/mL
MIC [16]: 0.0625 to 0.125 µg/mL (≈ 0.147 to 0.294 µM)
MIC [17]: 16 to 32 µg/mL (≈ 37.6 to 75.3 µM)
MIC [18]: > 32 µg/mL
MIC [19]: > 32 µg/mL

C=CC[C@H]1C(=O)O[C@H](CC)[C@@]2(C)OC(=O)N(CCCCn3cc(-c4cccc(N)c4)nn3)[C@@H]2[C@@H](C)NC[C@H](C)C[C@@](C)(OC)[C@H](O[C@@H]2OC(C)CC(N(C)C)C2O)[C@@H](C)C1=O (some centres unmarked) [FSM-56156]
MIC [20]: 16 µg/mL (≈ 18.7 µM)
MIC [21]: 32 µg/mL (≈ 37.5 µM)
MIC [22]: 1 µg/mL (≈ 1.17 µM)
MIC [28]: 4 µg/mL (≈ 4.68 µM)
MIC [24, 34]: 0.25 µg/mL (≈ 0.293 µM)
MIC [24, 35]: 8 µg/mL (≈ 9.37 µM)
MIC [24, 36]: > 32 µg/mL
MIC [24, 37]: > 32 µg/mL
MIC [24, 38]: 1 µg/mL (≈ 1.17 µM)
MIC [25, 39]: 4 µg/mL (≈ 4.68 µM)
MIC [25, 40]: > 32 µg/mL
MIC [25, 41]: 4 µg/mL (≈ 4.68 µM)
MIC [25, 42]: 8 µg/mL (≈ 9.37 µM)
MIC [26, 43]: 2 µg/mL (≈ 2.34 µM)
MIC [26, 44]: 8 µg/mL (≈ 9.37 µM)
MIC [27]: 4 µg/mL (≈ 4.68 µM)
MIC [29]: 2 µg/mL (≈ 2.34 µM)
